Reference: patent US20100298166A1, “CELL POPULATIONS FOR POLYPEPTIDE ANALYSIS AND USES OF SAME” (priority 2008, published 2010)
Read-outs that look alike come from different tables or passages of the source. Numbered stars: 1 amine (or outer) side, 2 acyl side, 3 side chain; on linkers, the order of the positions; unused ones are H or OH. Bridge positions count the residues as written; N and C are the ends. Square brackets hold non-standard residues; d marks the D form. Peptide text beside a SMILES is read from it. I, II: the chains in the order shown. Actinocin(9to1) = Cc1c2oc3c(C)ccc(C(=O)[*:1])c3nc-2c(C(=O)[*:2])c(N)c1=O; NMeV = CN[C@H](C(=O)O)C(C)C; Sar = CNCC(=O)O

Key:
Format in all cases: cell-based, human
TOP1 [1] = details: for effects on TOP1 (nucleolar exit, degradation, cytoplasmic accumulation): other DNA damaging drugs
Procedure: (§1) Long period time-lapse microscopy: Time-lapse movies were obtained (at 20× magnification) as described by Sigal et al. (Sigal, Milo et al. 2006, supra) with an automated, incubated (including humidity and CO2 control) Leica DMIRE2 inverted fluorescence microscope and an ORCA ER cooled CCD camera (Hamamatsu Photonics). The system was controlled by ImagePro5 Plus (Media Cybernetics) software which integrated time-lapse acquisition, stage movement, and software based auto-focus. During the experiment, cells were grown and visualized in 12-well coverslip bottom plates (MatTek) coated with […] fibronectin (Sigma). For each well time lapse movies were obtained at four fields of view. Each movie was taken at a time resolution of 20 minutes and was filmed for at least three days (over 200 time points). Each time point included three images—phase contrast, red and yellow fluorescence.
(§2) Drug Materials: Camptothecin (CPT; C9911 Sigma), was dissolved in DMSO (hybri-max, D2650 Sigma) to achieve a stock solution of 10 mM. In each experiment, drug was diluted to 10 μM in a transparent growth medium (RPMI, X PenStrep, 10% FCS, w/o riboflavin, w/o phenol red, Bet Haemek). Growth medium (2 ml) was replaced by the diluted drug (2 ml) under the microscope. The same procedure was carried out for the following drugs: Etoposide (E1383 Sigma), diluted to 33.3 μM and for Cisplatinum (P4394 Sigma) diluted to 40 μM. The stock solution for ActD (A1410 Sigma) was 1 mg/ml and was diluted to 1 μg/ml.
Image analysis of time lapse movies: A custom written image analysis tool was used developed using the Matlab image processing toolbox environment (Mathworks, Natick, Mass.). The main steps include; image correction, segmentation, tracking of the cells and automated identification of cell phenotypes (mitosis and cell death). Image background correction (flat field correction and background subtraction) was carried out as previously described (Sigal, Milo et al. 2006, supra). […] The main steps of the segmentation process are: 1) Differentiation between cells and background by global image threshold using Otsu's method (Otsu 1979, IEEE Transactions on Systems, Man, and Cybernetics 9(1): 62-66); 2) Segmentation of neighboring cells by applying the seeded watershed segmentation algorithm. Seeds were obtained by smoothening the red intensity image and usage of bright nuclei as cell seeds (by identifying local maxima)—one seed per cell; 3) Nuclei segmentation following cell segmentation; each cell was independently stretched between zero and one and a fixed threshold was used to differentiate between the cytoplasm and the nuclei; 4) Tracking of cells was performed by analyzing the movie from end to start and linking each segmented cell to the cell in the previous image with the closest centroid; 5) The automated cell death identification algorithm utilizes the morphological changes correlated with dying cells: rounding followed by blebbing and an explosion of the outer membrane or its collapse. An artificial neural network (ANN) algorithm was constructed that could identify each one of these morphological patters similar to the method previously described in (Eden 2005, IEEE, Transactions on Medical Imaging 24: 1011-1024). Briefly, two sets of images were constructed: The first contained 400 cell images in different stages of cell death and the second contained 400 live cell images. For each image, a collection of high-level image features was computed. […] This process transforms each image into a multi dimensional vector of features.

[2] = system: H1299 non-small cell lung carcinoma cell line; test: Time-lapse microscopy of cell death, motility and growth arrest after drug addition; details: CPT 10 uM
Procedure: as §1
Drug Materials: Camptothecin (CPT; C9911 Sigma), was dissolved in DMSO (hybri-max, D2650 Sigma) to achieve a stock solution of 10 mM. In each experiment, drug was diluted to 10 μM in a transparent growth medium (RPMI, X PenStrep, 10% FCS, w/o riboflavin, w/o phenol red, Bet Haemek). Growth medium (2 ml) was replaced by the diluted drug (2 ml) under the microscope. […]

[3] = system: YFP tagged proteins in H1299 cells; test: Temporal profiles of total fluorescence and cell-cell variability of YFP tagged proteins in response to drug
Procedure: as §1
Image analysis of time lapse movies: A custom written image analysis tool was used developed using the Matlab image processing toolbox environment (Mathworks, Natick, Mass.). The main steps include; image correction, segmentation, tracking of the cells and automated identification of cell phenotypes (mitosis and cell death). Image background correction (flat field correction and background subtraction) was carried out as previously described (Sigal, Milo et al. 2006, supra). No significant bleaching was observed (on average less than 3% over the duration of the experiment). […] The main steps of the segmentation process are: 1) Differentiation between cells and background by global image threshold using Otsu's method (Otsu 1979, IEEE Transactions on Systems, Man, and Cybernetics 9(1): 62-66); 2) Segmentation of neighboring cells by applying the seeded watershed segmentation algorithm. […]
Protein dynamics clustering: The five average population dynamics profiles depicted in FIG. 8B were generated in the following manner: The levels of each protein were smoothed using a median filter and linearly scaled between −1 and 1. The distance between every pair of proteins was measured in terms of Pearson correlation and clustering was performed using a k-means algorithm (reproducibility of results using different seeds is >99%). […]

TOP1 [4] = test: Immunoblots with anti-TOP1 and anti-GFP after CPT
Procedure: Immunoblots against 20 selected proteins: Total cell lysates were prepared with RIPA buffer (Pierce) according to manufacturer's instructions. The protein concentrations were determined by BCA protein assay kit (Thermo scientific). Equal amounts of proteins were resolved on SDS-PAGE and subjected to immunoblotting analysis by using the antibodies listed below. The intensity of protein bands was quantified by using ImageJ software.
Anti-Myosin IIA (M8064) and anti-GFP (11814460001) antibodies were from Sigma and Roche, respectively.

[5] = system: thyredoxin and thyredoxin reductase; test: Nuclear/cytoplasmic localization changes of tagged proteins following drug addition
Procedure: as §1
Image analysis of time lapse movies: A custom written image analysis tool was used developed using the Matlab image processing toolbox environment (Mathworks, Natick, Mass.). […]
Nuclear localization changes following drug addition: The localization of each protein across the experiment was analyzed and the ratio of cytoplasmic to nuclear fluorescence was followed as a function of time. […] Both rapid and slow localization changes between the cytoplasm and the nucleus were detected (FIGS. 14A-C).

nucleolar proteins = test: Quantitation of nucleolar translocations of tagged proteins; details: 1 μg/ml
Procedure: as §2
Then, for each of the selected clones, the present inventors calculated the ratio of fluorescence intensity between the top and bottom ten percent pixels in individual nuclei and averaged over the population. Clones with a max/min change of over 20 percent in this average during the experiment were inspected manually to verify the source of change in pixel intensity distribution and were classified as clones showing nucleolar translocation.
Finally, to quantify the extent and direction (nucleoli to nucleoplasm or vise versa) of the translocation, the present inventors calculated the ratio between mean fluorescence intensity of nucleoli vs. nucleoplasm (Rncll/nuc) at the two time points were the max/min ratio was maximized and minimized. […]

DDX5 = test: Bimodal behavior of tagged DDX5 in individual cells in response to drugs; details: Etoposide 33.3 μM, Cis-platinum 40 μM
Procedure: as §2
Determination of ‘bimodal’ behaviors: The coefficient of variance (CV defined as the ration between the std between cells and the mean) was measured for 400 proteins for 47 hours following addition of CPT (at a 20 minute resolution) (see FIGS. 13A-B). All CVs were normalized to average 1 (CV(i,j)/mean(mean(CV)) where i is protein number (i=1 . . . 400) and j is timepoint (j=1 . . . 141)). All proteins deviating 3 standard deviations from the average normalized CV were considered as ‘bimodal’ candidates (N=59). Following manual inspection, 30 of these proteins listed in Table 4 were denoted as bimodal.

CC[C@@]1(O)C(=O)OCc2c1cc1n(c2=O)Cc2cc3ccccc3nc2-1 [CPT, Camptothecin]
timescale of decrease of total cellular fluorescence of tagged TOP1 (TOP1 [1]; CPT): under an hour | nuclear exit of tagged TOP1 (TOP1 [1]; etoposide at equivalently lethal dose, CPT at several doses): exits from the nucleus to the cytoplasm in a CPT dose dependent manner | timescale of fluorescence accumulation in the cytoplasm in the TOP1 tagged clone (TOP1 [1]; following CPT addition): ~5 h | time for TOP1 levels in the nucleoli to drop after drug addition (TOP1 [1]; tagged TOP1, individual cells): less than 2 minutes | time to loss of motility and growth arrest after drug addition [2]: about 10 hours | cells showing cell rounding and blebbing (morphological correlates of cell death) ([2]; after 36 hours): about 15% | largest changes in fluorescence ([3]; CPT 10 uM): about five | median dynamic range of response, change in fluorescence ([3]; CPT 10 uM): 1.3 fold | proteins showing a decrease in intensity in response to the drug ([3]; CPT 10 uM, 48 hours tracking): about 70% | increase of cell-cell variability (noise) following drug addition, on average ([3]; std between cells divided by mean): 30% | time within which most TOP1 is degraded (TOP1 [4]): ≤ 4 h | time to increase in nuclear/cytoplasmic ratio of thyredoxin and thyredoxin reductase ([5]; after drug addition): ≤ 8 h | proteins showing significant change in nuclear localization (>20% change in cytoplasm/nuclear fluorescence ratio) ([5]; all tagged proteins, after CPT addition): about 1%

Cc1c2oc3c(C)ccc(C(=O)N[C@@H]4C(=O)N[C@H](C(C)C)C(=O)N5CCC[C@H]5C(=O)N(C)CC(=O)N(C)[C@@H](C(C)C)C(=O)O[C@@H]4C)c3nc-2c(C(=O)N[C@@H]2C(=O)N[C@H](C(C)C)C(=O)N3CCC[C@H]3C(=O)N(C)CC(=O)N(C)[C@@H](C(C)C)C(=O)O[C@@H]2C)c(N)c1=O [actinomycinD, actinomycin-D] (I: T[dV]P[Sar][NMeV] / II: T[dV]P[Sar][NMeV]; ester I:1-I:C, II:1-II:C; linker I:N-II:N via Actinocin(9to1))
proteins with nucleolar dynamics similar to those seen with CPT (nucleolar proteins): 4 out of 5

N.N.[Cl][Pt][Cl] [cisplatin, Cisplatinum]
bimodal behavior of tagged DDX5 (DDX5): did not show bimodal behavior | effects on TOP1 (nucleolar exit, degradation, cytoplasmic accumulation) (TOP1 [1]): did not show any of these effects on TOP1

COc1cc([C@@H]2c3cc4c(cc3[C@@H](O[C@@H]3O[C@@H]5CO[C@@H](C)O[C@H]5[C@H](O)[C@H]3O)[C@H]3COC(=O)[C@H]23)OCO4)cc(OC)c1O [etoposide, Etoposide]
bimodal behavior of tagged DDX5 (DDX5): did not show bimodal behavior | nuclear exit of tagged TOP1 (TOP1 [1]): does not occur | effects on TOP1 (nucleolar exit, degradation, cytoplasmic accumulation) (TOP1 [1]): did not show any of these effects on TOP1
